We go through 15 molecules from ChEMBL document CHEMBL5113442, “Discovery of agonist-antagonist pairs for the modulation of Ca [2]+ and voltage-gated K+ channels of large conductance that contain beta1 subunits” (Bioorg Med Chem, 2022).

In general, EC50 refers to the concentration that produces a half-maximal response.

Active and inactive are the calls of the source. The calls are words filed in the database; no cut-off is given here.

Type in all cases: cell-based
In assay [1] the test system is CHO. In words: Agonist activity at rat BK calcium channel alphabeta1 expressed in CHO cells assessed as fold increase in current amplitude at 0.0001 to 33.3 uM by automated whole cell patch clamp analysis. As to conditions: filed as agonist, dose 0.0001-33.3 µM. For orientation: In patch-clamp work, channel activity is measured electrically.
For assay [2], the system named is CHO. The experiment in a line: Agonist activity at rat BK calcium channel alphabeta1 expressed in CHO cells assessed as maximal current amplitude by automated whole cell patch clamp analysis. The note with it: filed as agonist.
In assay [3] the test system is CHO. In words: Antagonist activity at rat BK calcium channel alphabeta1 expressed in CHO cells assessed as decrease in current amplitude at 0.1 to 1 uM in presence of compound 1 by automated whole cell patch clamp analysis. As to conditions: filed as antagonist, dose 0.1-1 µM.
The test system of assay [4] is CHO. In words: Antagonist activity at rat BK calcium channel alphabeta1 expressed in CHO cells assessed as fold change in current amplitude at 1 uM in presence of compound 1 by automated whole cell patch clamp analysis. As to conditions: filed as antagonist.
In assay [5] the test system is CHO. The experiment in a line: Antagonist activity at rat BK calcium channel alphabeta1 expressed in CHO cells assessed as fold change in current amplitude at 3 uM in presence of compound 1 by automated whole cell patch clamp analysis. As to conditions: filed as antagonist.
Assay [6] is described as follows: Agonist activity at rat BK calcium channel alphabeta1 expressed in CHO cells assessed as increase in current amplitude by automated whole cell patch clamp analysis.

As to `O=C(Cc1ccc([N+](=O)[O-])cc1)NC[C@H](c1ccccc1Cl)c1c[nH]c2ccccc12`, the fold change (FC) with CHO [1] was 2.51.
For `Cc1n[nH]c(C)c1CCc1nc2c3ccccc3nc(SCc3ccc([N+](=O)[O-])cc3)n2n1`, in the assay on CHO [2], the ECmax came to 0.25 µM. Also, the fold change (FC) in the assay with CHO [1] came out at 1.23; with CHO [4] it was 2.2; in the assay with CHO [5] it was 2. In the assay on CHO [3], the result was Active.
In the case of `COc1cc(/C=C2/C(=O)NC(=O)N(c3ccccc3)C2=O)cc(Br)c1OCc1ccc([N+](=O)[O-])cc1`, the ECmax in the assay on CHO [2] worked out at 0.35 µM. Further, in the assay on CHO [1], the fold change (FC) was 4.07.
Turning to `COc1ccc([N+](=O)[O-])cc1/N=c1\ssc2c1-c1cc(C)c(C)cc1NC2(C)C`, the fold change (FC) in the assay on CHO [1] came out at 3.86.
On to `C/C(=C/C(=O)C[C@H](C)C(=O)O)[C@@H]1CC(=O)[C@@]2(C)C3=C(C(=O)C[C@]12C)[C@@]1(C)CCC(=O)C(C)(C)[C@@H]1C[C@@H]3O`, for which the ECmax with CHO [2] is 0.78 µM. The EC50 in assay [6] was 20 nM.
As for `CC[C@@H](C)NS(=O)(=O)c1cc([N+](=O)[O-])ccc1Oc1c(C)c(C(=O)NC[C@@H]2CCCO2)nn1-c1cccc(C)c1C`, the ECmax in the assay with CHO [2] is 0.42 µM. Also, in assay [6], the EC50 was determined as 2 nM.
For the molecule `COc1ccc(C(=O)NC(=S)Nc2ccc(O)c(-c3nc4ccc(C)cc4o3)c2)cc1[N+](=O)[O-]`, the ECmax with CHO [2] was 0.21 µM. Besides, in the assay with CHO [1], the fold change (FC) came out at 2.47.
The matching figures for `CCOC(=O)c1c(NC(=O)[C@H](C)Sc2nnc(CNC(=O)c3ccc(C)c([N+](=O)[O-])c3)n2CCc2ccccc2)sc2c1CCC2`: 0.14 µM and 1.84.
As for `O=C(Nc1ccc(F)cc1)c1nnc(/C(Cl)=C\c2cccc([N+](=O)[O-])c2)s1`, in the assay on CHO [2], the ECmax stood at 0.72 µM. Besides, in assay [6], the EC50 came to 5 nM.
Regarding `COc1ccc(NC(=O)/C(=C\c2cccc([N+](=O)[O-])c2)NC(=O)c2ccc(F)cc2Cl)cc1OC`, the ECmax with CHO [2] was 0.15 µM. Also, the fold change (FC) in the assay on CHO [1] stood at 1.94.
As to `C/C(=N\Nc1ccc([N+](=O)[O-])cc1S(=O)(=O)Nc1ccccc1Cl)c1ccc2ccccc2c1O`, the ECmax in the assay on CHO [2] amounted to 0.38 µM. Besides, in the assay with CHO [1], the fold change (FC) is 4.05.
As to `Cc1ccc(C(=O)NN2C(=O)/C(=C\c3ccc(OC(=O)c4cccc([N+](=O)[O-])c4)cc3)SC2=S)cc1`, the fold change (FC) in the assay on CHO [1] worked out at 2.47.
On to `O=C(Nc1ccccc1)c1nnc(/C(Cl)=C\c2cccc([N+](=O)[O-])c2)s1`, for which the ECmax in the assay with CHO [2] came to 0.44 µM. Moreover, in the assay with CHO [1], the fold change (FC) amounted to 4.05.
Regarding `O=C(NCc1ccc(F)cc1)c1nnc(/C(Cl)=C\c2cccc([N+](=O)[O-])c2)s1`, in the assay with CHO [1], the fold change (FC) worked out at 1.73.
Turning to `O=C1NC(=O)N(c2ccc(F)cc2)C(=O)/C1=C/c1cc(Br)ccc1OCc1cccc([N+](=O)[O-])c1`, in the assay on CHO [2], the ECmax stood at 1.05 µM. For the same molecule, in assay [6], the EC50 came out at 20 nM.
